Assay results taken from ChEMBL document CHEMBL1145216, “N-hydroxy-2-(naphthalene-2-ylsulfanyl)-acetamide, a novel hydroxamic acid-based inhibitor of aminopeptidase N and its anti-angiogenic activity” (Bioorg Med Chem Lett, 2005).

Assays:
[1] = target: T1, Matrix metalloproteinase-9 (Homo sapiens, UniProt P14780); assay: Inhibition of human matrix metalloprotease-9 expressed in Sf9 insect cells
[2] = target: T2, Matrix metalloproteinase-14 (Homo sapiens, UniProt P50281); assay: Inhibition of human matrix metalloprotease-14 expressed in Escherichia coli
[3] = target: T2, Matrix metalloproteinase-14; assay: Inhibitory concentration against matrix metalloprotease-14 in Escherichia coli was determined; NA:Not active
[4] = target: T1, Matrix metalloproteinase-9; assay: Inhibition of human matrix metalloprotease-9 expressed in Sf9 insect cells; NA:Not active
Aminopeptidase N [5] = target: T3, Aminopeptidase N (Homo sapiens, UniProt P15144); assay: Inhibitory concentration against aminopeptidase N
T3 sequence (P15144 whole entry): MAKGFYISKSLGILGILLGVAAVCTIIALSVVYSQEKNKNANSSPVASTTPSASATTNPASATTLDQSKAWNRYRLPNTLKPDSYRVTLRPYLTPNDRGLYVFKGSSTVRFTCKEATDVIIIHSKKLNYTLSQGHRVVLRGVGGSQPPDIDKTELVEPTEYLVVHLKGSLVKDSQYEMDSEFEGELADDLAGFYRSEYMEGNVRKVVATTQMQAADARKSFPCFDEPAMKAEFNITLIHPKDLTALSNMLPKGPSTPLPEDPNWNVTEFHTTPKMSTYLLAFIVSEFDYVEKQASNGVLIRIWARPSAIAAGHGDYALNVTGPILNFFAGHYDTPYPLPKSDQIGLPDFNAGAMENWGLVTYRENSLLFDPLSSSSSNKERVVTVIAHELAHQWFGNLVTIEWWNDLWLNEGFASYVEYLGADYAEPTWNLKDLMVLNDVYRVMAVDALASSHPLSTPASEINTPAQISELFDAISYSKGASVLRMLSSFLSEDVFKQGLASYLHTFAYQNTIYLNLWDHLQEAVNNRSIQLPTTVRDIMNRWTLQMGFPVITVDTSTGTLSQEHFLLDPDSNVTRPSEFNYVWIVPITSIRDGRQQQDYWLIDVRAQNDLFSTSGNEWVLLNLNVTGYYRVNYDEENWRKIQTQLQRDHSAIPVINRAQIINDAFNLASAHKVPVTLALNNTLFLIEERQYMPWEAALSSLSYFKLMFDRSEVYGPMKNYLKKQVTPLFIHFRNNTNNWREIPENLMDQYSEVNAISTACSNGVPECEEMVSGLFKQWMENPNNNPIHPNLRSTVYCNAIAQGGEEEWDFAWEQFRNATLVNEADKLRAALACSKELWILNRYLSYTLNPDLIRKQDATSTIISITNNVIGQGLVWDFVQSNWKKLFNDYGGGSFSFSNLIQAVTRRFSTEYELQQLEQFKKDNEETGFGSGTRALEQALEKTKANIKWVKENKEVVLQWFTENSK

Aminopeptidase N [6] = target: T3, Aminopeptidase N; assay: Binding affinity towards aminopeptidase N
[7] = target: 72 kDa type IV collagenase (Homo sapiens, UniProt P08253); assay: Inhibition of human matrix metalloprotease-2 expressed in Sf9 insect cells; NA:Not active
Chain of 72 kDa type IV collagenase (P08253 whole entry): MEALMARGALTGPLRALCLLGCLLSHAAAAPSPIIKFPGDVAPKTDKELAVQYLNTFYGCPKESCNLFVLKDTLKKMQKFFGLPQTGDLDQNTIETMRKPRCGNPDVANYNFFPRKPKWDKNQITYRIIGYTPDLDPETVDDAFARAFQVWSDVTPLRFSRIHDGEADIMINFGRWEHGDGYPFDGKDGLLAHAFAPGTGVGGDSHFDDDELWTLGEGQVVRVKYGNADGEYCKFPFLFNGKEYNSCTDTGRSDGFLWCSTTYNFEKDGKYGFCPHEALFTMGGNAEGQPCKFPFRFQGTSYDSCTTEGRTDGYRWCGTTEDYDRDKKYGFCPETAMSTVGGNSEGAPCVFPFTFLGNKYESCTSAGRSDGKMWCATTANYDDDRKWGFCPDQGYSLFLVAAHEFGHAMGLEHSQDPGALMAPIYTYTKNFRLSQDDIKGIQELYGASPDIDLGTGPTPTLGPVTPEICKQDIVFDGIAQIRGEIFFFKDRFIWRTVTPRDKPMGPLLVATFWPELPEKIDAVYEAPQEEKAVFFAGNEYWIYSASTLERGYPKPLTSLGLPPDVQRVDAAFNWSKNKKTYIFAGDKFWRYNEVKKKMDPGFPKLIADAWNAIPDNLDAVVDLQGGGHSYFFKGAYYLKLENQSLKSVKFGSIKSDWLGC

T1 sequence (P14780 whole entry): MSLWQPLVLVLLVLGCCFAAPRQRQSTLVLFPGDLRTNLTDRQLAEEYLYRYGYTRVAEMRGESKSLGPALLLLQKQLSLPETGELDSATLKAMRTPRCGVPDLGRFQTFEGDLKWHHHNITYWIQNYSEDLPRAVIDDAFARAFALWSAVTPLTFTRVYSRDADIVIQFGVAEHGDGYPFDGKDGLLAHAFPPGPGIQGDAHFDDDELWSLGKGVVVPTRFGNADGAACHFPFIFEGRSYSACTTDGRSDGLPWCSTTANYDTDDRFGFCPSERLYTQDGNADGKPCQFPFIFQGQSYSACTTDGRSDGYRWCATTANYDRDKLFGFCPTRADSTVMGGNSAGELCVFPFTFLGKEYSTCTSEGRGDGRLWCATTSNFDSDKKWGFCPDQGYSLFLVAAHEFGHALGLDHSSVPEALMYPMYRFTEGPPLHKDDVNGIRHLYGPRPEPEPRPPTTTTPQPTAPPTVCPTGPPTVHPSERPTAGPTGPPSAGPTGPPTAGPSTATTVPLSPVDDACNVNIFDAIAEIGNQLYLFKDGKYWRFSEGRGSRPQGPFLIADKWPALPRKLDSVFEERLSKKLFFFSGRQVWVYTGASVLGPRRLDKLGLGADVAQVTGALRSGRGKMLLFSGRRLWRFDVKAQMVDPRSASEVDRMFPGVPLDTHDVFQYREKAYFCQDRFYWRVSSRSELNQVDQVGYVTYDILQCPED

| IC50 [1] [nM] | IC50 [2] [nM] | IC50 [3] | IC50 [4] | IC50 (Aminopeptidase N [5]) [nM] | Ki (Aminopeptidase N [6]) [nM] | IC50 [7] | SMILES |
| --- | --- | --- | --- | --- | --- | --- | --- |
| 25 | 47 | – | – | – | – | – | CNC(=O)[C@H](Cc1ccccc1)NC(=O)[C@H](CC(C)C)[C@H](CSc1cccs1)C(=O)NO [BATIMASTAT] |
| – | – | Not Active | Not Active | 3400 | 3500 | Not Active | O=C(CSc1ccc2ccccc2c1)NO |
